Measured values as given in patent US8889704B2 (Array BioPharma Inc., priority 2011, dated 2014).
Structures can show the parent of a compound that is named as a salt.

Key:
Assay type in all cases: biochemical
[1] = biological target: recombinant rat PIM-3 (Rattus norvegicus, UniProt O70444); test: PIM-3 Assay (as Example A); conditions: averaged IC50; 30 μM ATP, 3.75 μM PIM2tide, 0.5 nM PIM-3
Outline: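 33P incorporation from 30 μM [γ-33P]ATP into 3.75 μM PIM2tide by 0.5 nM rat PIM-3, 60 min at 22 °C in pH 7.4 MOPS buffer, read by P81 filter capture and scintillation counting. Compounds tested in 3-fold dilutions up to 10 μM final, 2% DMSO; percent-of-control data fitted by 4-parameter logistic for IC50.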

[2] = biological target: PIM-1 (Homo sapiens, UniProt P11309); test: Enzyme PIM-1 Assay ([33P]ATP incorporation into PIM2tide, filter plate); conditions: averaged IC50; 35 μM ATP, 7.5 μM PIM2tide, 0.25 nM PIM-1, 60 min at 22° C.
PIM-1, sequence (P11309 whole entry, species assumed): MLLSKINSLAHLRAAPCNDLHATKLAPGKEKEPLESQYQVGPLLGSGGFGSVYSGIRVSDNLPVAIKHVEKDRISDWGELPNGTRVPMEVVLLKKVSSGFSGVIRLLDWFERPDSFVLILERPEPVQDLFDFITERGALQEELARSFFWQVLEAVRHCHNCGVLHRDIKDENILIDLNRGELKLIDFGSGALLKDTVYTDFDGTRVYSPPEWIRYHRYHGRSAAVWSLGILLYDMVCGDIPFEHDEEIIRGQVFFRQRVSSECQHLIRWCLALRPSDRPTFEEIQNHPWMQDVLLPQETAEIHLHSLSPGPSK
Outline: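 Ten-point, 3-fold dilution series (10 μM top, 2% DMSO final) tested for inhibition of 33P transfer from 35 μM ATP to 7.5 μM PIM2tide by 0.25 nM PIM-1. Reaction 60 min, 22 °C, pH 7.4 MOPS/MgCl2 buffer; phosphocellulose capture, scintillation counting, IC50 where fitted POC equals 50.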

[3] = biological target: T1, GST-tagged recombinant full-length human Pim-2 (Homo sapiens, UniProt Q9P1W9); test: PIM-2 Assay (as Example A); conditions: averaged IC50; 4 μM ATP, 1.0 μM PIM2tide, 1.5 nM Pim-2
T1 construct: GST-tagged recombinant full-length human Pim-2; GST
T1 sequence (Q9P1W9 whole entry): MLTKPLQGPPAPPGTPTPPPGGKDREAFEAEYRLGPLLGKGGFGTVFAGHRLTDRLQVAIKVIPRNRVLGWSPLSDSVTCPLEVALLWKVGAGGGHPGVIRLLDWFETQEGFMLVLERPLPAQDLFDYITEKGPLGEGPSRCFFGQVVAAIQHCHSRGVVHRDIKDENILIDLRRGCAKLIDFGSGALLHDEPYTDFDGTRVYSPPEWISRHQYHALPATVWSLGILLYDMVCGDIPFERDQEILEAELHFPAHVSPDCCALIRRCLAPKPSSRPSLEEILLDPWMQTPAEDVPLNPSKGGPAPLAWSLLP
Outline: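 IC50 was derived by 4-parameter logistic fitting of percent-of-control data over a 10-point, 3-fold series (highest 10 μM, 2% DMSO). Reactions held 1.5 nM GST-Pim-2 (full-length, human), 4 μM [γ-33P]ATP and 1.0 μM PIM2tide for 60 min at 22 °C, pH 7.4; 33P-peptide captured on P81 filters.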

Structure (SMILES) | IC50 [1] [nM] | IC50 [2] [nM] | IC50 [3] [nM]
COCCCOc1cc(F)cc2ccc(-c3nnc4ccc([C@@H](N5CC[C@H](N)C5)C(F)(F)F)cn34)nc12 [Example 233, (S)-1-((R)-2,2,2-trifluoro-1-(3-(6-fluoro-8-(3-methoxypropoxy)quinolin-2-yl)-[1,2,4]triazolo[4,3-a]pyridin-6-yl)ethyl)pyrrolidin-3-amine dihydrochloride] | 1.1 | 0.28 | 260
CN(C)C(=O)Cc1cccc2ccc(-c3nnc4ccc([C@@H](N5CC[C@H](N)C5)C(F)(F)F)cn34)nc12 [Example 234, 2-(2-(6-((R)-1-((S)-3-aminopyrrolidin-1-yl)-2,2,2-trifluoroethyl)-[1,2,4]triazolo[4,3-a]pyridin-3-yl)quinolin-8-yl)-N,N-dimethylacetamide dihydrochloride] | 33 | 8.22 | > 1000
CCNC(=O)Cc1cccc2ccc(-c3nnc4ccc([C@@H](N5CC[C@H](N)C5)C(F)(F)F)cn34)nc12 [Example 235, 2-(2-(6-((R)-1-((S)-3-aminopyrrolidin-1-yl)-2,2,2-trifluoroethyl)-[1,2,4]triazolo[4,3-a]pyridin-3-yl)quinolin-8-yl)-N-ethylacetamide dihydrochloride] | 33 | 7.81 | > 1000
CC(C)(O)Cc1cc2nc(-c3nnc4ccc([C@@H](N5CC[C@H](N)C5)C(F)(F)F)cn34)ccc2cc1F [Example 236, dihydrochloride] | 2.4 | 1.08 | 675
CC(C)(O)Cc1cc2nc(-c3nnc4ccc([C@H](N5CC[C@H](N)C5)C(F)(F)F)cn34)ccc2cc1F [Example 237, dihydrochloride] | 1.8 | 2.91 | 211
C[C@H](CO)Oc1cc(F)cc2ccc(-c3nnc4ccc([C@@H](N5CC[C@H](N)C5)C(F)(F)F)cn34)nc12 [Example 238, (R)-2-(2-(6-((R)-1-((S)-3-aminopyrrolidin-1-yl)-2,2,2-trifluoroethyl)-[1,2,4]triazolo[4,3-a]pyridin-3-yl)-6-fluoroquinolin-8-yloxy)propan-1-ol dihydrochloride] | 0.6 | 0.17 | 166
N[C@H]1CCN([C@H](c2ccc3nnc(-c4ccc5ccc(OC(F)(F)F)cc5n4)n3c2)C(F)(F)F)C1 [Example 239, (S)-1-((R)-2,2,2-trifluoro-1-(3-(7-(trifluoromethoxy)quinolin-2-yl)-[1,2,4]triazolo[4,3-a]pyridin-6-yl)ethyl)pyrrolidin-3-amine dihydrochloride] | 12 | 1.66 | > 1000
COc1cccc2ccc(-c3nnc4ccc([C@@H](N5CC[C@@](C)(N)C5)C(F)(F)F)cn34)nc12 [Example 240, (R)-3-methyl-1-((R)-2,2,2-trifluoro-1-(3-(8-methoxyquinolin-2-yl)-[1,2,4]triazolo[4,3-a]pyridin-6-yl)ethyl)pyrrolidin-3-amine dihydrochloride] | 18 | 2.37 | > 1000
COc1cc(F)cc2ccc(-c3nnc4ccc([C@@H](N5CC[C@@](C)(N)C5)C(F)(F)F)cn34)nc12 [Example 241, (R)-3-methyl-1-((R)-2,2,2-trifluoro-1-(3-(6-fluoro-8-methoxyquinolin-2-yl)-[1,2,4]triazolo[4,3-a]pyridin-6-yl)ethyl)pyrrolidin-3-amine dihydrochloride] | 17 | 2.6 | > 1000
COc1cccc2ccc(-c3nnc4ccc([C@@H](N5CC[C@](C)(N)C5)C(F)(F)F)cn34)nc12 [Example 246, (S)-3-methyl-1-((R)-2,2,2-trifluoro-1-(3-(8-methoxyquinolin-2-yl)-[1,2,4]triazolo[4,3-a]pyridin-6-yl)ethyl)pyrrolidin-3-amine dihydrochloride] | 15 | 1.77 | > 1000
CCOc1cc2nc(-c3nnc4ccc([C@@H](N5CC[C@](C)(N)C5)C(F)(F)F)cn34)ccc2cc1F [Example 247, (S)-1-((R)-1-(3-(7-ethoxy-6-fluoroquinolin-2-yl)-[1,2,4]triazolo[4,3-a]pyridin-6-yl)-2,2,2-trifluoroethyl)-3-methylpyrrolidin-3-amine dihydrochloride] | 1.2 | 0.41 | 392
COc1cc(F)cc2ccc(-c3nnc4ccc([C@@H](N5CC[C@](C)(N)C5)C(F)(F)F)cn34)nc12 [Example 248, (S)-3-methyl-1-((R)-2,2,2-trifluoro-1-(3-(6-fluoro-8-methoxyquinolin-2-yl)-[1,2,4]triazolo[4,3-a]pyridin-6-yl)ethyl)pyrrolidin-3-amine dihydrochloride] | 8.1 | 1.17 | > 1000
CCOc1cc2nc(-c3nnc4ccc([C@H](N5CC[C@H](N)C5)C(F)(F)F)cn34)ccc2cc1F [Example 249, (S)-1-((S)-1-(3-(7-ethoxy-6-fluoroquinolin-2-yl)-[1,2,4]triazolo[4,3-a]pyridin-6-yl)-2,2,2-trifluoroethyl)pyrrolidin-3-amine dihydrochloride] | 0.8 | 0.51 | 83
N[C@H]1CCN([C@H](c2ccc3nnc(-c4ccc5cc(F)cc(OCCO)c5n4)n3c2)C(F)(F)F)C1 [Example 254, 2-(2-(6-((R)-1-((S)-3-aminopyrrolidin-1-yl)-2,2,2-trifluoroethyl)-[1,2,4]triazolo[4,3-a]pyridin-3-yl)-6-fluoroquinolin-8-yloxy)ethanol dihydrochloride] | 0.9 | 0.25 | 273
CCOc1ccc2ccc(-c3nnc4ccc([C@@H](N5CC[C@H](N)C5)C(F)(F)F)cn34)nc2c1 [Example 255, (S)-1-((R)-1-(3-(7-ethoxyquinolin-2-yl)-[1,2,4]triazolo[4,3-a]pyridin-6-yl)-2,2,2-trifluoroethyl)pyrrolidin-3-amine dihydrochloride] | 0.6 | 0.24 | 284
CCOc1ccc2ccc(-c3nnc4ccc([C@H](N5CC[C@H](N)C5)C(F)(F)F)cn34)nc2c1 [Example 256, (S)-1-((S)-1-(3-(7-ethoxyquinolin-2-yl)-[1,2,4]triazolo[4,3-a]pyridin-6-yl)-2,2,2-trifluoroethyl)pyrrolidin-3-amine dihydrochloride] | 1 | 0.58 | 199
CCOc1ccc2ccc(-c3nnc4ccc([C@@H](N5CCC6(CCCN6)C5)C(F)(F)F)cn34)nc2c1 (stereo partly drawn) [Example 257, 7-ethoxy-2-(6-((1R)-2,2,2-trifluoro-1-(1,7-diazaspiro[4.4]nonan-7-yl)ethyl)-[1,2,4]triazolo[4,3-a]pyridin-3-yl)quinoline dihydrochloride] | 9 | 1.45 | 724
CCOc1ccc2ccc(-c3nnc4ccc([C@H](N5CCC6(CCCN6)C5)C(F)(F)F)cn34)nc2c1 (stereo partly drawn) [Example 258, 7-ethoxy-2-(6-((1S)-2,2,2-trifluoro-1-(1,7-diazaspiro[4.4]nonan-7-yl)ethyl)-[1,2,4]triazolo[4,3-a]pyridin-3-yl)quinoline dihydrochloride] | 1.9 | 2.05 | 531
CC(C)(O)COc1cc(F)cc2ccc(-c3nnc4ccc([C@@H](N5CC[C@H](N)C5)C(F)(F)F)cn34)nc12 [Example 259, 1-(2-(6-((R)-1-((S)-3-aminopyrrolidin-1-yl)-2,2,2-trifluoroethyl)-[1,2,4]triazolo[4,3-a]pyridin-3-yl)-6-fluoroquinolin-8-yloxy)-2-methylpropan-2-ol formate] | 0.3 | 0.12 | 54
COCCOc1ccc2ccc(-c3nnc4ccc([C@H](N5CC[C@](C)(N)C5)C(F)(F)F)cn34)nc2c1 [Example 260, (S)-3-methyl-1-((S)-2,2,2-trifluoro-1-(3-(7-(2-methoxyethoxy)quinolin-2-yl)-[1,2,4]triazolo[4,3-a]pyridin-6-yl)ethyl)pyrrolidin-3-amine dihydrochloride] | 0.5 | 0.39 | 95
COCCOc1ccc2ccc(-c3nnc4ccc([C@@H](N5CC[C@](C)(N)C5)C(F)(F)F)cn34)nc2c1 [Example 261, (S)-3-methyl-1-((R)-2,2,2-trifluoro-1-(3-(7-(2-methoxyethoxy)quinolin-2-yl)-[1,2,4]triazolo[4,3-a]pyridin-6-yl)ethyl)pyrrolidin-3-amine dihydrochloride] | 3.3 | 0.6 | > 1000
CCOc1ccc2ccc(-c3nnc4ccc([C@H](N5CC[C@](C)(N)C5)C(F)(F)F)cn34)nc2c1 [Example 262, (S)-1-((S)-1-(3-(7-ethoxyquinolin-2-yl)-[1,2,4]triazolo[4,3-a]pyridin-6-yl)-2,2,2-trifluoroethyl)-3-methylpyrrolidin-3-amine dihydrochloride] | 0.4 | 0.22 | 63
